This note sets out measurements from patent publication US20250114338A1, “TETRAHYDRO-PYRIDO[3,4-b]INDOLE ESTROGEN RECEPTOR MODULATORS AND USES THEREOF” (Genentech, Inc., priority 2014, published 2025).

The structures appear in SMILES notation.

The test system of assay [1] is immature rat uterus. Nature of the assay: Immature Uterine Wet Weight Assay, agonist mode (Example 906). The format is in vivo. The settings on record: dosed PO, QDx3, uterine wet weight:body weight ratio, endometrial height. On the procedure: All of the exemplary Formula I compounds in Tables 1 and 2 were made and characterized by LCMS [M+H]^+ (liquid chromatography mass spectroscopy) with detection of parent ion. […] ER-alpha MCF7 HCS Sinf (%) values in Table 1 were measured by the Breast Cancer Cell ERa High Content Fluorescence Imaging Degradation Assay of Example 901. […] RTP, 25 (3):226-31). […] Where more than one name is associated with a Formula I compound or intermediate, the chemical structure shall define the compound. Female immature CD-IGS rats (21 days old upon arrival) are treated for three days. Animals are dosed daily for three days. […] For Agonist Mode, Vehicle or test compound is administered orally by gavage. On the fourth day 24 hours after dose, plasma is collected for pharmacokinetic analysis. Immediately following plasma collection, the animals are euthanized and the uterus removed and weighed. […] Stained tissues are analyzed and read by a board certified pathologist. Uteri and ovaries from 4 animals per group are flash frozen in liquid N2 for transcriptional analysis, examining a select set of genes modulated by the estrogen receptor. […] U.S. Pat. […] Vehicle and Vehicle plus ethynyl estradiol (EE). All compounds were dosed PO, QDx3. Uterine Wet Weight (UWW): Body Weight ratios were calculated. The mean Endometrial Height of Uterine cross sections were measured by histology. Endometrial cell height was measured from the basement membrane to the apical (luminal) surface using a slide viewer at 20× magnification. Obliquely cut areas were avoided.

In assay [2] the target is estrogen receptor alpha (ESR1) in MCF7 breast cancer cells (Homo sapiens (Human), UniProt P03372). Nature of the assay: Breast Cancer Cell ERa High Content Fluorescence Imaging Degradation Assay (Example 901). The settings on record: 4 hours, plateau of maximal effect, 0% = DMSO, 100% change = 5 nM Fulvestrant. The format is cell-based. The procedure:
Where more than one name is associated with a Formula I compound or intermediate, the chemical structure shall define the compound. […] Cell plates were incubated at 37° C., for 4 hours. Fixation and permeabilization were carried out using a Biotek EL406 plate washer and dispenser as follows. […] Well contents were aspirated and washed 3 times with 100 μL/well of PBS. […] Samples were incubated for 2 hours at room temperature. […] Samples were incubated for 2 hours at room temperature. […] Quantitative fluorescence imaging of ESR1 was carried out using a Cellomics Arrayscan V (Thermo). […] Channel 1 (DNA stain) was used to define the nuclear region (Circ). […] The “Robust Fit” method was used to define the inflexion point of curve (EC50) and the plateau of the maximal effect (Sinf).

estrogen receptor alpha (ESR1) in MCF7 breast cancer cells, sequence (P03372 whole entry): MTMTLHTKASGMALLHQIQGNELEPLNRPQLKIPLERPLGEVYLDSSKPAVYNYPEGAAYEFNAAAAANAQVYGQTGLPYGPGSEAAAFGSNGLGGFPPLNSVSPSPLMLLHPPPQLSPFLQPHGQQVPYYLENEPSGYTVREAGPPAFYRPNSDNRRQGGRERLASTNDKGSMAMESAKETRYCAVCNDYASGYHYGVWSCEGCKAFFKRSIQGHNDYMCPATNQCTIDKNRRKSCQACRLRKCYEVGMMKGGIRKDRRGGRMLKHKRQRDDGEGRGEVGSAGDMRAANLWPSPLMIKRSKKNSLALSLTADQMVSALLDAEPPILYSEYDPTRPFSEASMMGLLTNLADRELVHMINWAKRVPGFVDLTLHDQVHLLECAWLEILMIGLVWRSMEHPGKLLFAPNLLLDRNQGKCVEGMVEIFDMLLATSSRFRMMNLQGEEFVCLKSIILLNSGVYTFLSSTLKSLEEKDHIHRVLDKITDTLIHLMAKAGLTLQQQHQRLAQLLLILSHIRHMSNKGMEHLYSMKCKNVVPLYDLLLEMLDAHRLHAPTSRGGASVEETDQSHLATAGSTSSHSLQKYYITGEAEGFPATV

In the case of `C[C@@H]1Cc2c([nH]c3ccccc23)[C@@H](c2c(F)cc(OC3CN(CCCF)C3)cc2F)N1CC(C)(C)F` [Example 101, (1R,3R)-1-(2,6-difluoro-4-((1-(3-fluoropropyl)azetidin-3-yl)oxy)phenyl)-2-(2-fluoro-2-methylpropyl)-3-methyl-2,3,4,9-tetrahydro-1H-pyrido[3,4-b]indole], in assay [1], the “agonist mode UWW assay: antagonist / partial agonist” value was “antagonists”. Besides, the “ER-alpha MCF7 HCS Sinf (%)” value in assay [2] was −100%.

For the molecule `C[C@@H]1Cc2c([nH]c3ccccc23)[C@@H](c2c(F)cc(/C=C/C(=O)O)cc2F)N1CC(C)(C)F` [AZD9496, reference compound], in assay [1], the “agonist mode UWW assay: antagonist / partial agonist” value was “partial agonist”.

Regarding `C[C@@H]1Cc2c([nH]c3ccccc23)[C@@H](c2c(F)cc(OCCN3CC(CF)C3)cc2F)N1CC(C)(C)F` [Example 102, (1R,3R)-1-(2,6-difluoro-4-(2-(3-(fluoromethyl)azetidin-1-yl)ethoxy)phenyl)-2-(2-fluoro-2-methylpropyl)-3-methyl-2,3,4,9-tetrahydro-1H-pyrido[3,4-b]indole], in assay [1], the “agonist mode UWW assay: antagonist / partial agonist” value was “antagonists”. The “ER-alpha MCF7 HCS Sinf (%)” value in assay [2] is reported as −98.9%.
